Consider 2 molecules from US20160214941A1, “Compounds for lnhibition of Unregulated Cell Growth” (GODAVARI BIOREFINERIES LIMITED, priority 2013, published 2016).

Format in all cases: cell-based
One experiment has as its system MDA MB 231 cell line. As to the kind of experiment: In vitro 3D sphere forming stem cell assay. Here is the method: In Vitro 3D Sphere Forming Stem Cell Assay Compounds of Formula III & IV were evaluated in an in vitro 3D sphere forming stem cell assay as described by Rajasekhar, V K, Analytical Methods for Cancer Stem Cells. Methods in Molecular Biology, 2007, Volume 407, 83-95.
An exemplary procedure for the in vitro 3D sphere forming stem cell assay is described as follows. Breast Cancer Cells were grown in two dimensions on a plastic substrate, harvested in suspension in serum-free media, then the cells in the sample were trypsinized and a single cell suspension was formed by passing through a cell strainer. The cells were diluted according to the predetermined plating efficiency for the cell line being studied by suspending the cells in stem cell culture medium. 100 uL of this suspension was added into each well of a 96 well suspension plate, and the plate was incubated at 37° C. in 5% CO2 atmosphere for 24 hours, then 2 uL of appropriate concentrations of the drugs was added into each respective well along with 100 uL of stem cell culture medium, and the plates incubated at 37° C. under 5% CO2 atmosphere for 72 hours. 2.5 uL of the appropriate drug concentration (Formula III and Formula IV) of was then added to each respective well along with 50 uL of stem cell culture medium, then the plates incubated at 37° C. under 5% CO2 atmosphere for 72 hours. 3 uL of the appropriate drug concentration was added to each respective well along with 50 uL of stem cell culture medium, then incubated at 37° C. under 5% CO2 atmosphere for 72 hours, the spheres formed were observed under a microscope then counted and scored by size.
The number in each box is the total number of spheres formed in the presence of either cisplatin, compound of Formula III or compound of Formula IV at each drug concentration. GC refers to a growth control performed in the absence of drug or solvent (DMSO). GCD refers to a growth control performed in the absence of drug, but in the presence of DMSO.

The subject of experiment [1] is L929. Briefly: In vitro colorimetric cell death assay (MTT assay). Particulars: L929 (fibroblast), 48 hours. Here is the method: (§1) MTT assay was carried for assessing cell viability where the cells were grown in two-dimensional surface. The procedure for the assay is as follows. Cancer cells were plated in 96 well plates as per predetermined plating efficiency. The plates were incubated for 24 hours in a 5% CO2 atmosphere at 37° C., a range of concentrations of the compound of the present invention was added to the wells, the plates were incubated further for 48 hours in a 5% CO2 atmosphere, the plates were centrifuged twice at 3000 rpm for 3 minutes, the supernatant fluid was discarded, 100 uL of 0.5 mg/mL MIT solution was added and the plates were incubated for 4 hours in a 5% CO2 atmosphere at 37° C. The plates were then centrifuged twice at 3000 rpm for 3 minutes, supernatant was aspirated very carefully, 200 uL DMSO was added to each well to solubilize MTT crystals and mixed well by shaking the plates, the plates were incubated for 10 minutes in a 5% CO2 atmosphere at 37° C., the plates were placed on the shaker of an ELISA plate reader and the absorbance at 570 nm was measured, then the percentage of viable cells remaining was calculated by first subtracting the background absorbance then comparing to the absorbance of a non-drug-treated cell sample, and the results were plotted on a graph to determine the IC50 for the compound as known in the art. The reference drug used was Cisplatin.

In experiment [2] the test system is HCT-15. Briefly: In vitro colorimetric cell death assay (MTT assay). The conditions noted are these: HCT-15 (colon cancer), 48 hours. As for the experimental part:
as §1

The test system of experiment [3] is SiHa. As to the kind of experiment: In vitro colorimetric cell death assay (MTT assay). Particulars: SiHa (cervical cancer), 48 hours. As for the experimental part: as §1
The test system of another experiment is Hep3B. As to the kind of experiment: In vitro colorimetric cell death assay (MTT assay). Particulars: Hep3B (hepatic cancer), 48 hours. As for the experimental part:
as §1

The next experiment relates to NCIH23. Briefly: In vitro colorimetric cell death assay (MTT assay). Particulars: NCIH23 (lung cancer), 48 hours. Here is the method: as §1
Experiment [4] has as its system LnCaP. As to the kind of experiment: In vitro colorimetric cell death assay (MTT assay). Particulars: LnCaP (prostate cancer), 48 hours. Here is the method:
as §1

For another experiment, the system named is Colo320. Briefly: In vitro colorimetric cell death assay (MTT assay). Particulars: Colo320 (colon cancer), 48 hours. As for the experimental part:
as §1

A further experiment relates to Colo205. Briefly: In vitro colorimetric cell death assay (MTT assay). The conditions noted are these: Colo205 (colon cancer), 48 hours. Here is the method:
as §1

The subject of experiment [5] is T47D. As to the kind of experiment: In vitro colorimetric cell death assay (MTT assay). Particulars: T47D (breast cancer), 48 hours. Here is the method: as §1
Experiment [6] deals with PC3 (Prostrate Cancer) cells. As to the kind of experiment: CD44 and CD24 expression on PC3 cells by Flow Cytometry. The conditions noted are these: 48 hours. Here is the method: A study was conducted to determine the effect of compound of Formula IV and Cisplatin on CD44 and CD24 expression on PC3 (Prostrate Cancer) cells by Flow Cytometry. PC3 cells (0.35×106) were cultured in R.P.M.I (Roswell Park Memorial Institute Medium)-1640 cell culture medium with 10% F.B.S (Fetal Bovine Serum) on 60 mm TC (Tissue Culture) plates. Cells were exposed to IC10 drug concentration of Cisplatin & IC10 drug concentration of compound of Formula IV in duplicates. Similarly other sets were exposed to IC25 drug concentration of Cisplatin & compound of Formula IV in duplicates. IC10 and IC25 drug concentrations were calculated as per MTT results. All the sets were incubated at 37° C., 5% CO2 for 48 hours. After 48 hours, cells were observed under the microscope. Cells were trypsinised, washed with D.P.B.S. (Dulbecco's Phosphate Buffered Saline) and 50 μL of cells were taken for each set and 5 μL of each of CD24 and CD44 antibodies were added. CD24-FITC (Fluorescein isothiocyanate) labeled & CD44-PE (Phycoerythrin) labeled was used for the study. The sets were incubated for 45 minutes at 4° C. in dark for proper binding of antibodies. After incubation the cells were washed with 200 μL of D.P.B.S., supernatant was discarded and the cells were finally suspended in 300 μL of FACS buffer (4% F.B.S in D.P.B.S.). […]

Experiment [7] deals with L929. Briefly: In vitro soft agar colony forming growth assay. The conditions noted are these: L929, one week. As for the experimental part: (§2) Compounds of Formula IV were evaluated in an in vitro soft agar colony forming growth inhibition assay as described by Lieber, M M, and Kovach, J S. Soft agar colony formation assay for chemotherapeutic sensitivity of human solid tumors. Mayo Clin Proc 1982; 57: 527-528 and Tanigawa, N, Kern, D H, Kikasa, Y, and Morton, D L. Rapid assay for evaluating the chemosensitivity of human tumors in soft agar culture. Cancer Res 1982; 42: 2159-2164.
(§3) An exemplary procedure for the in vitro soft agar colony forming growth inhibition assay is as follows.

Experiment [8] concerns HCT-15. Briefly: In vitro soft agar colony forming growth assay. The conditions noted are these: HCT-15, one week. As for the experimental part: as §2, §3
The subject of experiment [9] is SiHa. Briefly: In vitro soft agar colony forming growth assay. Particulars: one week. Here is the method:
as §2, §3

Experiment [10] relates to LnCaP. As to the kind of experiment: In vitro soft agar colony forming growth assay. The conditions noted are these: one week. As for the experimental part:
as §2, §3

Another experiment concerns PC3. As to the kind of experiment: In vitro soft agar colony forming growth assay. Particulars: PC3, one week. As for the experimental part:
as §2, §3

A further experiment deals with DU145. As to the kind of experiment: In vitro soft agar colony forming growth assay. Particulars: DU145, one week. Here is the method:
as §2, §3

In experiment [11] the test system is T47D. As to the kind of experiment: In vitro soft agar colony forming growth assay. Particulars: one week. Here is the method:
as §2, §3

Consider `N.N.[Cl][Pt][Cl]` [Cisplatin], for which the “# of 3D Spheres Formed (±SD)” value with MDA MB 231 cell line (MDAMB 231, 1.1 uM) is recorded as 35(±4); in the experiment on MDA MB 231 cell line (MDAMB 231, 11 uM) it was 24(±2); in the experiment on MDA MB 231 cell line (MDAMB 231, 110 uM) it was 16(±2). Besides, the IC50 in the experiment on L929 [1] was 38 µM; in the experiment on HCT-15 [2], 49.1 µM; in the experiment on SiHa [3], 43.2 µM; in the experiment on Hep3B it was 37.6 µM; with NCIH23, 45.7 µM; in the experiment with LnCaP [4] it was 38.4 µM. Also, the IC50 in the experiment with Colo320 was determined as 38.3 µM; in the experiment on Colo205, 44.3 µM; in the experiment with T47D [5] it was 95.5 µM; in the experiment with L929 [7], 9.44 µM; in the experiment with HCT-15 [8] it was 40 µM; in the experiment on SiHa [9] it was 19.5 µM. Besides, the IC50 was 31.6 µM in the experiment with LnCaP [10], 52.5 µM with PC3, 33.1 µM in the experiment on DU145 and 39.8 µM with T47D [11]. Also, the “effect on cell / CD44 population” value in experiment [6] (IC10 drug concentration) was “most of the cells remain unaffected”. Also, the “effect on CD44 cell population” value in [6] (IC25 drug concentration) is on record as “good number of CD44 cell population surviving”.

With `COc1ccc(/C=C/C(=O)c2cccc(Nc3c4ccc(Cl)cc4nc4ccc(OC)cc34)c2)cc1` [Formula III, 1-(3-(6-chloro-2-methoxyacridin-9-ylamino)phenyl)-3-(4-methoxyphenyl)prop-2-en-1-one], the “sphere reduction as compared to standard drug Cisplatin” value with MDA MB 231 cell line (MDA MB 231) is given as “Significant sphere reduction”. In addition, the “# of 3D Spheres Formed (±SD)” value in the experiment with MDA MB 231 cell line (MDAMB 231, 1.1 uM) is recorded as 15(±2); in the experiment on MDA MB 231 cell line (MDAMB 231, 11 uM) it was 0(±0); in the experiment with MDA MB 231 cell line (MDAMB 231, 110 uM) it was 0(±0).
